Test results published in US5616615A, “Enaminone esters” (priority 1995, dated 1997).
Where two headings read alike, the source gives them in different places.

Tests used:
[1] = in vivo; conditions: rat, po
Description: (§1) This oral screen is designated as phase VI.

[2] = tested on: Subcutaneous Pentylenetetrazol seizure; assay: sc Met subcutaneous pentylenetetrazol (Metrazol) seizure test, mice; format: in vivo; conditions: Mus musculus, sc, read-out: scMet, animals protected/tested (converted)
[3] = tested on: Maximal electroshock seizures; assay: MES maximal electroshock seizure test, mice ip; format: in vivo; parameters: TPE (time of peak effect), activity: unit not given here; conditions: for responders at 100 mg/kg / responders at 10 mg/kg: read-out: MES, animals protected/tested (converted); for anti-MES protecting ability: Phase I
Procedure: Three tests were performed:
1. MES--Electroshock Seizure Test
(§2) Maximal electroshock seizures are elicited with a 60-cycle alternating current of 50 mA intensity (5-7 times that necessary to elicit minimal electroshock seizures) delivered via corneal electrodes for 0.2 seconds. A drop of 0.9% saline is instilled in the eye prior to application of the electrodes in order to […].

[4] = Neurotoxicity, rats ip; conditions: 100 mg/kg
Procedure: The rotorod test is used to elevate neurotoxicity. The animal is placed on a 1 inch diameter knurled plastic rod rotating at 6 rpm. […] Neurologic toxicity is defined as the failure of the animal to remain on the rod for 1 minute and the results are expressed as the number of animals protected/the number of animals tested.
The toxicity evaluation for the commercial agents as previously indicated was based on the onset of ataxia.

[5] = tested on: seizures; assay: Anticonvulsant evaluation (ASP phase I / overall); format: in vivo, mice; conditions: for minimal effective dose: Mus musculus, ip, Phase I, read-out: ASP Classification
Procedure, shortened: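 Male Carworth Farms #1 mice; maximal electroshock seizures elicited by 60-cycle AC, 50 mA, 0.2 s via corneal electrodes after a drop of 0.9% saline in the eye. Animals observed for 30 minutes.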

[6] = in vivo; conditions: mouse, in vivo
Procedure: The first phase of the ADD Program involved performing tests on male Carworth Farms #1 mice. […] Three tests were performed:
In the second phase of the ADD program protocol, estimates of anticonvulsant activity and neurotoxicity are quantified. The median effective dose (ED50) in the MES, sc Met, and rotorod test is determined. In the case of a compound with apparent activity in only one anticonvulsant test, testing is carried out in the other up to, and in some cases beyond, doses which produce neurological deficit. Compounds which fail to produce minimal neurological deficit are tested whenever possible to doses ten times their lowest anticonvulsant ED50. […] The rotorod ED50 is determined at the time of the peak neurologic deficit.

[7] = tested on: Maximal electroshock seizures; assay: Phase VI oral MES test, rats; format: in vivo; conditions: for ED50 / responders at 60 mg/kg / responders at 50 mg/kg: oral; for ED50: rat; for responders at 60 mg/kg / responders at 50 mg/kg: Rattus norvegicus, read-out: MES, animals protected/tested (converted)
Description: as §2, §1

[8] = tested on: Corneal Kindled rats; parameters: ED50 (reduction from Stage 5 to Stage 4): unit not given beside the values; conditions: cited from earlier work; for ED50 (reduction from Stage 5 to Stage 4): data provided by the ADD Program
[9] = Mus musculus, ip, 0.5 h, 30 min
[10] = Mus musculus, ip, 0.5 h, 30 min, read-out: MES, animals protected/tested
[11] = Mus musculus, ip, 4 h, 4 h, read-out: MES, animals protected/tested
[12] = Mus musculus, ip, 0.25 h, mice ip, 0.25 h
[13] = Mus musculus, ip, 0.5 h, mice ip, 0.50 h
[14] = Mus musculus, ip, 1 h, mice ip, 1.00 h
[15] = Mus musculus, ip, 2 h, mice ip, 2.00 h
[16] = Mus musculus, ip, 4 h, mice ip, 4.00 h
[17] = Mus musculus, ip, 0.25 h, Phase II, 0.25 h
[18] = Mus musculus, ip, 1 h, Phase II, 1.00 h

## CC1(C)CC(=O)C=C(Nc2ccccc2)C1 [Compound 36]
[1]
  TD50: > 250 mg/kg
  selectivity ratio: 8.3
[1]; 60 mg/kg
  Tox, animals toxic/tested: 0/4
[2]; 0.5 h, 30 min
  responders at 100 mg/kg: 0%
  responders at 300 mg/kg: 0%
[2]; 4 h, 4 h
  responders at 100 mg/kg: 0%
  responders at 300 mg/kg: 0%
[3]; [9]
  responders at 100 mg/kg: 66.7%
[3]; [10]
  responders at 300 mg/kg: 100%
[3]; Mus musculus, ip, 4 h, 4 h
  responders at 100 mg/kg: 0%
[3]; [11]
  responders at 300 mg/kg: 0%
[3]; Mus musculus, Phase II, ip, time of peak effect
  ED50: 109 mg/kg
[3]; Phase II, ip
  TPE (time of peak effect), activity: 0.5
[4]; 0.25 h (Table X-A)
  animals displaying neurotoxicity/tested: 5/8
[4]; 0.50 h (Table X-A)
  animals displaying neurotoxicity/tested: 7/8
[4]; 1.00 h (Table X-A)
  animals displaying neurotoxicity/tested: 6/8
[4]; 2.00 h (Table X-A)
  animals displaying neurotoxicity/tested: 6/8
[4]; 4.00 h (Table X-A)
  animals displaying neurotoxicity/tested: 3/8
[4]; 6.00 h (Table X-A)
  animals displaying neurotoxicity/tested: 3/8
[4]; 24.00 h (Table X-A)
  animals displaying neurotoxicity/tested: 0/8
[5]
  minimal effective dose: < 100 mg/kg
[5]; mouse, in vivo
  anticonvulsant activity: potent anticonvulsants
[6]
  protective index: modest
[6]; ip
  TD50: 233 mg/kg
  TPE (time of peak effect), toxicity: 0.5
  selectivity ratio: 2.13
[7]; Phase VI
  ED50: 30.1 mg/kg
[7]; Phase VI, rats
  anticonvulsant activity over time: anticonvulsant activity is lost after 1 hour
[7]; 0.5 h, 0.50 h
  responders at 60 mg/kg: 75%
[7]; 0.25 h
  responders at 60 mg/kg: 75%
[7]; 1.00 h
  responders at 60 mg/kg: 0%
[7]; 2.00 h
  responders at 60 mg/kg: 0%
[7]; 4.00 h
  responders at 60 mg/kg: 0%

## CCOC(=O)C1C(=O)C=C(Nc2ccc(Br)cc2)CC1C (stereo not drawn) [Compound 123]
[1]; 50 mg/kg
  Tox, animals toxic/tested: 0/4
[2]; 0.5 h, 30 min
  responders at 100 mg/kg: 0%
  responders at 300 mg/kg: 0%
[2]; 4 h, 4 h
  responders at 100 mg/kg: 0%
  responders at 300 mg/kg: 0%
[3]; [12]
  responders at 10 mg/kg: 75%
[3]; [9]
  responders at 100 mg/kg: 100%
[3]; [10]
  responders at 300 mg/kg: 100%
[3]; [13]
  responders at 10 mg/kg: 75%
[3]; [14]
  responders at 10 mg/kg: 75%
[3]; [15]
  responders at 10 mg/kg: 50%
[3]; Mus musculus, ip, 4 h, 4 h
  responders at 100 mg/kg: 66.7%
[3]; [11]
  responders at 300 mg/kg: 100%
[3]; [16]
  responders at 10 mg/kg: 0%
[3]
  anti-MES protecting ability: showed anti-MES protecting ability
[5]
  minimal effective dose: < 100 mg/kg
[6]; ip, 100 mg/kg
  Tox, animals toxic/tested: 0/8
[7]; 0.5 h, 0.50 h
  responders at 50 mg/kg: 100%
[7]; 0.25 h
  responders at 50 mg/kg: 100%
[7]; 1.00 h
  responders at 50 mg/kg: 100%
[7]; 2.00 h
  responders at 50 mg/kg: 100%
[7]; 4.00 h
  responders at 50 mg/kg: 100%

## CCOC(=O)C1C(=O)C=C(Nc2ccc(CC)cc2)CC1C (stereo not drawn) [Compound 126]
[1]; 50 mg/kg
  Tox, animals toxic/tested: 0/4
[2]; 0.5 h, 30 min
  responders at 300 mg/kg: 0%
[2]; 4 h, 4 h
  responders at 300 mg/kg: 0%
[3]; [17]
  responders at 100 mg/kg: 100%
[3]; [10]
  responders at 300 mg/kg: 100%
[3]; [18]
  responders at 100 mg/kg: 0%
[3]; [11]
  responders at 300 mg/kg: 0%
[5]
  minimal effective dose: > 100 mg/kg
[6]; 100 mg/kg
  Tox (rotorod), animals toxic/tested: 0/2
[7]; 0.5 h, 0.50 h
  responders at 50 mg/kg: 75%
[7]; 0.25 h
  responders at 50 mg/kg: 50%
[7]; 1.00 h
  responders at 50 mg/kg: 75%
[7]; 2.00 h
  responders at 50 mg/kg: 75%
[7]; 4.00 h
  responders at 50 mg/kg: 50%

## CCOC(=O)C1C(=O)C=C(Nc2ccc([N+](=O)[O-])cc2)CC1C (stereo not drawn) [Compound 127]
[1]; 50 mg/kg
  Tox, animals toxic/tested: 0/4
[2]; 0.5 h, 30 min
  responders at 100 mg/kg: 0%
  responders at 300 mg/kg: 100%
[2]; 0.5 h, 30 min, second trial
  responders at 300 mg/kg: 50%
[2]; 4 h, 4 h
  responders at 100 mg/kg: 0%
  responders at 300 mg/kg: 0%
[3]; [9]
  responders at 100 mg/kg: 100%
[3]; [10]
  responders at 300 mg/kg: 100%
[3]; Mus musculus, ip, 0.5 h, Phase II, 3 mg/kg, 0.50 h, read-out: MES, animals protected/tested
  responders at 3 mg/kg: 0%
[3]; Mus musculus, ip, 0.5 h, Phase II, 0.50 h
  responders at 10 mg/kg: 0%
[3]; Mus musculus, ip, 4 h, 4 h
  responders at 100 mg/kg: 0%
[3]; [11]
  responders at 300 mg/kg: 0%
[5]
  minimal effective dose: < 100 mg/kg
[6]; 3 mg/kg
  Tox (rotorod), animals toxic/tested: 0/4
[6]; 10 mg/kg
  Tox (rotorod), animals toxic/tested: 0/4
[7]; 0.5 h, 0.50 h
  responders at 50 mg/kg: 50%
[7]; 0.25 h
  responders at 50 mg/kg: 25%
[7]; 1.00 h
  responders at 50 mg/kg: 100%
[7]; 2.00 h
  responders at 50 mg/kg: 50%
[7]; 4.00 h
  responders at 50 mg/kg: 25%

## CCOC(=O)C1C(=O)C=C(Nc2ccc(C(F)(F)F)cc2)CC1C (stereo not drawn) [Compound 131]
[1]; 50 mg/kg
  Tox, animals toxic/tested: 0/4
[2]; 0.5 h, 30 min
  responders at 100 mg/kg: 0%
  responders at 300 mg/kg: 0%
[2]; 4 h, 4 h
  responders at 100 mg/kg: 0%
  responders at 300 mg/kg: 0%
[3]; [12]
  responders at 10 mg/kg: 100%
[3]; [9]
  responders at 100 mg/kg: 100%
[3]; [10]
  responders at 300 mg/kg: 100%
[3]; [13]
  responders at 10 mg/kg: 75%
[3]; [14]
  responders at 10 mg/kg: 100%
[3]; [15]
  responders at 10 mg/kg: 50%
[3]; Mus musculus, ip, 4 h, 4 h
  responders at 100 mg/kg: 0%
[3]; [11]
  responders at 300 mg/kg: 100%
[3]; [16]
  responders at 10 mg/kg: 50%
[3]
  anti-MES protecting ability: showed anti-MES protecting ability
[5]
  minimal effective dose: < 100 mg/kg
[6]; ip, 100 mg/kg
  Tox, animals toxic/tested: 0/8
[7]; 0.5 h, 0.50 h
  responders at 50 mg/kg: 100%
[7]; 0.25 h
  responders at 50 mg/kg: 100%
[7]; 1.00 h
  responders at 50 mg/kg: 100%
[7]; 2.00 h
  responders at 50 mg/kg: 100%

## CC1(C)CC(=O)C=C(Nc2ccc(N)cc2)C1 [Compound 142]
[1]; 50 mg/kg
  Tox, animals toxic/tested: 0/4
[2]; 0.5 h, 30 min
  responders at 100 mg/kg: 0%
  responders at 300 mg/kg: 0%
[2]; 4 h, 4 h
  responders at 100 mg/kg: 0%
  responders at 300 mg/kg: 0%
[3]; [17]
  responders at 100 mg/kg: 50%
[3]; [9]
  responders at 100 mg/kg: 0%
[3]; [10]
  responders at 300 mg/kg: 100%
[3]; [18]
  responders at 100 mg/kg: 50%
[3]; Mus musculus, ip, 4 h, 4 h
  responders at 100 mg/kg: 33.3%
[3]; [11]
  responders at 300 mg/kg: 100%
[5]
  minimal effective dose: < 100 mg/kg
[6]; 100 mg/kg
  Tox (rotorod), animals toxic/tested: 0/2
[7]; 0.5 h, 0.50 h
  responders at 50 mg/kg: 0%
[7]; 0.25 h
  responders at 50 mg/kg: 0%
[7]; 1.00 h
  responders at 50 mg/kg: 0%
[7]; 2.00 h
  responders at 50 mg/kg: 0%
[7]; 4.00 h
  responders at 50 mg/kg: 25%

## NC(=O)N1c2ccccc2C=Cc2ccccc21 [carbamazepine, reference compound]
[3]; Phase II, ip
  TPE (time of peak effect), activity: 0.5
[8]; comparative commercial product
  ED50, corneal kindling: 28.90 mg/kg
[8]; po, 1 h, 30 min
  ED50 (reduction from Stage 5 to Stage 4): 28.90
[6]; ip
  TPE (time of peak effect), toxicity: 0.5
[7]; Phase VI
  ED50: 8.5 mg/kg

## O=C1CN=C(c2ccccc2Cl)c2cc([N+](=O)[O-])ccc2N1 [clonazepam]
[8]; po, 1 h, 30 min
  ED50 (reduction from Stage 5 to Stage 4): 0.70

## O=C1NC(=O)C(c2ccccc2)(c2ccccc2)N1 [phenytoin, reference compound]
[1]
  TD50: > 3000 mg/kg
[3]; Phase II, ip
  TPE (time of peak effect), activity: 2
[8]; ip, 0.5 h
  ED50 (reduction from Stage 5 to Stage 4): 48.25
[8]; oral route
  activity in corneal kindling: inactive
[8]; po, 0.5 h
  ED50 (reduction from Stage 5 to Stage 4): > 100
[6]; ip
  TPE (time of peak effect), toxicity: 2
[7]; Phase VI
  ED50: 29.8 mg/kg
